Reference: patent US20200405666A9, “TREATMENT OF SYMPTOMS ASSOCIATED WITH FEMALE GASTROPARESIS” (priority 2011, published 2020)

System: symptoms of diabetic gastroparesis
Assay: Phase 2 randomized, double-blind, placebo-controlled study METO-IN-002 of metoclopramide nasal spray: symptom scores (mGCSI-DD, GCSI-DD, PAGI-SYM, other endpoints)
Format: in vivo, human
Design: key to Stomach Fullness / Early Satiety / Feeling Full / Loss of Appetite / Bloating / Stomach Larger / Upper Abdominal Pain / Upper Abdominal Discomfort / mGCSI-DD (primary endpoint) / Nausea / Retching / Vomiting / Sheehan Disability Scales / Investigator Assessment of Overall Gastroparesis Severity / Subject Assessment of Overall Gastroparesis Severity / Investigator Assessment of Overall Treatment Effect / Subject Assessment of Overall Treatment Effect / Days w/o Vomiting / Days w/o Nausea / Days w/o Vomiting or Nausea / Days w/o Upper Abdominal Pain or Upper Abdominal Discomfort / Nausea Response by Response Threshold / GCSI-DD / Days w/o Vomiting or Retching &, No Use of Rescue Medication / Nausea Responder Analysis / Overall Severity of Gastroparesis Symptoms - Subject / PAGI-SYM Questionnaire / Nausea/Vomiting (listed under PAGI-SYM Questionnaire) / Bloating (listed under PAGI-SYM Questionnaire) / Upper Abdominal Pain/Discomfort (listed under PAGI-SYM Questionnaire) / Early Satiety (listed under PAGI-SYM Questionnaire): A=Favors Active; P=Favors Placebo
Details: for Statistically significant improvement in mGCSI-DD score (in words): 10 mg IN and 14 mg IN arms, Baseline to Week 4
Protocol: Example 1: A Multicenter, Randomized, Double-Blind, Placebo-Controlled, Parallel Group, Dose-Ranging Clinical Study to Evaluate the Efficacy and Safety of Metoclopramide Nasal Spray Solution in Diabetic Subjects with Gastroparesis
The objectives of this study were to evaluate the safety and the effectiveness of two doses of metoclopramide nasal spray solution, 10 mg and 14 mg, compared to placebo in reducing the symptoms of diabetic gastroparesis and to assess the plasma concentrations of two doses of metoclopramide nasal spray in subjects with diabetic gastroparesis following a single dose and at steady state. The aforementioned dosages for the treatment and control of gastroparesis were administered before meals and/or before bed time. Subjects who met the entry criteria after the Washout Period (Day −7 to Day −1) were randomized using an IVRS, to metoclopramide nasal spray 10 mg, 14 mg, or placebo, in roughly equal numbers (approximately 1:1:1) using a predetermined randomization schedule employing permuted blocks. Randomization was preformed centrally.
Metoclopramide nasal spray solution, 200 mg/mL base (as monohydrochloride monohydrate) is a clear colorless to pale-yellow aqueous solution manufactured for Evoke Pharma. The metoclopramide nasal spray was packaged in a 10 mL amber glass vial mounted with a metered nasal spray pump. The metered dose vial delivered a 50 μL or 70 μL spray (10 mg or 14 mg of metoclopramide base respectively) with each actuation. One 10 mL vial contained sufficient metoclopramide nasal spray to deliver 120 doses of 10 mg or 14 mg.
A vehicle control was used as the placebo for metoclopramide nasal spray solution. The placebo spray was packaged in a 10 mL amber glass vial mounted with a metered nasal spray pump. The metered dose vial delivered a 50 μL spray with each actuation. One 10 mL vial contained sufficient placebo to deliver 120 doses. The delivery of either a 50 μL or 70 μL spray is indistinguishable to the subject or study staff.
A 7-day Washout Period preceded randomization. During this time, and for the duration of the study, subjects were asked to discontinue use of all medications that are known to ameliorate or exacerbate symptoms associated with diabetic gastroparesis. Subjects were trained on the use of an interactive voice response system (IVRS) to record the severity of nine gastroparesis symptoms of the GCSI-DD and additional symptoms such as: severity of abdominal pain and abdominal discomfort, number of hours of nausea, number of episodes of vomiting, and overall severity of gastroparesis symptoms in a daily diary. The IVRS was used during the treatment period for self-reported assessments. Subjects completed these diary assessments via the IVRS each evening.
Subjects with a mean GCSI-DD total score of <2.0 or >4.0 during the 7-day Washout Period were excluded from the study.
At the Randomization Visit (Day 0), the Patient Assessment of Upper Gastrointestinal Disorders Symptoms (PAGI-SYM) Questionnaire, and disability questionnaires were administered to the subject and the Investigator and subject assessed overall gastroparesis symptom severity (OGS) prior to taking study drug. Subjects began taking the study drug at the clinical site with a single dose on Day 0. The subjects returned to the clinic for safety and efficacy evaluations on Visits 4, 5, 6, and 7 (Days 7, 14, 21, and 28).
At each scheduled study visit to the clinical study site, the IVRS daily diary compliance was reviewed. In addition, at Visit 5 (Day 14), the PAGI-SYM Questionnaire was administered to the subject and the Investigator and subject assessed OGS severity. At the Final Visit (Day 28) subjects took their last dose of study drug at the clinical site and returned their vial of unused/remaining study drug. The subject completed the PAGI-SYM, and disability questionnaires. The Investigator and subject assessed OGS and overall treatment effect (OTE). […]

[1] = all subjects (ITT), 10 mg IN four times daily
[2] = all subjects (ITT), 14 mg IN four times daily
[3] = females, 10 mg IN four times daily
[4] = females, 10 mg IN four times daily, Week 4, vs placebo
[5] = females, 10 mg IN four times daily, listed as Metoclopramide
[6] = females, 14 mg IN four times daily
[7] = females, 14 mg IN four times daily, Week 4, vs placebo

CCN(CC)CCNC(=O)c1cc(Cl)c(N)cc1OC [metoclopramide, -amino-5-chloro-N-(2-(diethylamino)ethyl)-2-methoxybenzamide]
Mean Change from Baseline to Week 4 in mGCSI-DD [1]: −1.2
Mean mGCSI-DD total score at Week 4 [1]: 1.6
Mean Change from Baseline to Week 4 in mGCSI-DD [2]: −1.2
Mean mGCSI-DD total score at Week 4 [2]: 1.7
Statistically significant improvement in mGCSI-DD score (in words) (all subjects): neither Treatment Arm experienced statistically significant improvement
Difference of Least Square Means, mGCSI-DD change from Baseline to Week 4 (all subjects, 10 mg IN vs placebo): −0.20
Difference of Least Square Means, mGCSI-DD change from Baseline to Week 4 (all subjects, 14 mg IN vs Metoclopramide 10 mg): 0.06
Difference of Least Square Means, mGCSI-DD change from Baseline to Week 4 (all subjects, 14 mg IN vs placebo): −0.14
Symptoms with statistical separation or improved trends compared to placebo (female subjects, 11 symptoms collected): 11 of 11
Statistically significant improvement in mGCSI-DD score (in words) (females): statistically significant improvement
Mean Change from Baseline to Week 4 in mGCSI-DD [3]: −1.2 (−1.2)
Mean mGCSI-DD total score at Week 4 [3]: 1.6 (1.6)
Bloating [4]: A
Bloating (listed under PAGI-SYM Questionnaire) [4]: A
Days w/o Nausea [4]: A (p < 0.05)
Days w/o Upper Abdominal Pain or Upper Abdominal Discomfort [4]: A
Days w/o Vomiting [4]: A
Days w/o Vomiting or Nausea [4]: A (p < 0.05)
Days w/o Vomiting or Retching &, No Use of Rescue Medication [4]: A
Early Satiety [4]: A
Early Satiety (listed under PAGI-SYM Questionnaire) [4]: A
Feeling Full [4]: A (p < 0.05)
GCSI-DD [4]: A (p < 0.05)
Investigator Assessment of Overall Gastroparesis Severity [4]: A
Investigator Assessment of Overall Treatment Effect [4]: P
Loss of Appetite [4]: A
Nausea [4]: A (p < 0.05)
Nausea Responder Analysis [4]: A
Nausea Response by Response Threshold [4]: A (p < 0.05)
Nausea/Vomiting (listed under PAGI-SYM Questionnaire) [4]: A
Overall Severity of Gastroparesis Symptoms - Subject [4]: A (p < 0.05)
PAGI-SYM Questionnaire [4]: A
Retching [4]: A
Sheehan Disability Scales [4]: A
Stomach Fullness [4]: A
Stomach Larger [4]: A
Subject Assessment of Overall Gastroparesis Severity [4]: A
Subject Assessment of Overall Treatment Effect [4]: A
Upper Abdominal Discomfort [4]: A
Upper Abdominal Pain [4]: A (p < 0.05)
Upper Abdominal Pain/Discomfort (listed under PAGI-SYM Questionnaire) [4]: A
Vomiting [4]: A
mGCSI-DD (primary endpoint) [4]: A (p < 0.05)
Mean Change from Baseline to Week 4 in mGCSI-DD [5]: −1.2
Mean mGCSI-DD total score at Week 4 [5]: 1.6
Difference of Least Square Means, mGCSI-DD change from Baseline to Week 4 (females, 10 mg IN vs placebo): −0.38
Mean Change from Baseline to Week 4 in mGCSI-DD [6]: −1.3
Mean mGCSI-DD total score at Week 4 [6]: 1.7 (1.7)
Bloating [7]: A
Bloating (listed under PAGI-SYM Questionnaire) [7]: A
Days w/o Nausea [7]: A (p < 0.05)
Days w/o Upper Abdominal Pain or Upper Abdominal Discomfort [7]: P
Days w/o Vomiting [7]: A
Days w/o Vomiting or Nausea [7]: A (p < 0.05)
Days w/o Vomiting or Retching &, No Use of Rescue Medication [7]: A
Early Satiety [7]: A
Early Satiety (listed under PAGI-SYM Questionnaire) [7]: A
Feeling Full [7]: A
GCSI-DD [7]: A (p < 0.05)
Investigator Assessment of Overall Gastroparesis Severity [7]: A
Investigator Assessment of Overall Treatment Effect [7]: A
Loss of Appetite [7]: A
Nausea [7]: A (p < 0.05)
Nausea Responder Analysis [7]: A (p < 0.05)
Nausea Response by Response Threshold [7]: A (p < 0.05)
Nausea/Vomiting (listed under PAGI-SYM Questionnaire) [7]: A (p < 0.05)
Overall Severity of Gastroparesis Symptoms - Subject [7]: A
PAGI-SYM Questionnaire [7]: A
Retching [7]: A
Sheehan Disability Scales [7]: A
Stomach Fullness [7]: A
Stomach Larger [7]: A (p < 0.05)
Subject Assessment of Overall Gastroparesis Severity [7]: A
Subject Assessment of Overall Treatment Effect [7]: A
Upper Abdominal Discomfort [7]: A
Upper Abdominal Pain [7]: A (p < 0.05)
Upper Abdominal Pain/Discomfort (listed under PAGI-SYM Questionnaire) [7]: A
Vomiting [7]: A
